Measured values taken from patent US6455540B1, “Methods of use of quinolone compounds against anaerobic pathogenic bacteria” (priority 1999, dated 2002).

What was measured:
Test in all cases: Agar dilution MIC
[1] = tested on: Prevotella buccae-oris group; type: cell-based; conditions: 22 isolates
Fusobacterium russii = type: cell-based
Bacteroides gracilis = type: cell-based, Bacteroides gracilis (Campylobacter gracilis); conditions: 11 isolates
Clostridium inocuum = type: cell-based, Clostridium innocuum; conditions: 11 isolates
[2] = tested on: Prevotella heparinolytica; type: cell-based; conditions: 16 isolates
[3] = tested on: Anaerobiospirillum thomasii; type: cell-based; conditions: 13 isolates
Porphyromonas gingivalis = type: cell-based; conditions: 13 isolates
Bilophila wadsworthia = type: cell-based; conditions: 16 isolates; agar supplemented with pyruvate
[4] = tested on: Anaerobiospirillum succiniciproducens; type: cell-based; conditions: 3 isolates
[5] = tested on: Clostridium clostridioforme; type: cell-based; conditions: 11 isolates
Clostridium dfficile = type: cell-based, Clostridium difficile; conditions: 14 isolates
Fusobacterium varium = type: cell-based; conditions: 17 isolates
Prevotella intermedia = type: cell-based; conditions: 11 isolates
[6] = tested on: Peptostreptococcus magnus; type: cell-based; conditions: 13 isolates
[7] = tested on: Peptostreptococcus micros; type: cell-based; conditions: 12 isolates
[8] = tested on: Prevotella denticola/loeschii group; type: cell-based; conditions: 6 isolates
[9] = tested on: Prevotella melaninogenica; type: cell-based; conditions: 12 isolates
Porphyromonas macaccae = type: cell-based; conditions: 13 isolates
Actinomyces israelii = type: cell-based; conditions: 6 isolates
[10] = tested on: Fusobacterium spp. group 2; type: cell-based, Fusobacterium mortiferum, necrogenes, ulcerans; conditions: 12 isolates
Prevotella bivia = type: cell-based; conditions: 21 isolates
Bacteroides tectum = type: cell-based; conditions: 22 isolates
[11] = tested on: Peptostreptococcus prevotii; type: cell-based; conditions: 9 isolates
Veillonella spp. = type: cell-based; conditions: 24 isolates
[12] = tested on: Peptostreptococcus asaccharolyticus; type: cell-based; conditions: 11 isolates
Bacteroides ureolyticus = type: cell-based; conditions: 17 isolates
Clostridium ramosum = type: cell-based; conditions: 10 isolates
[13] = tested on: Fusobacterium spp group 1; type: cell-based; conditions: 19 isolates
[14] = tested on: Actinomyces odontolyticus; type: cell-based; conditions: 10 isolates
[15] = tested on: Porphyromonas asaccharolyticus; type: cell-based, Porphyromonas asaccharolytica; conditions: 11 isolates
Porphyromonas canoris = type: cell-based; conditions: 10 isolates

CC1(C)S[C@@H]2[C@H](NC(=O)Cc3ccccc3)C(=O)N2[C@H]1C(=O)O [Penicillin G]
Minimal Inhibitory Concentration 50% (MIC50) [1]: 8 µg/mL
Minimal Inhibitory Concentration 90% (MIC90) [1]: >32 µg/mL
Minimal Inhibitory Concentration 50% (MIC50) (Fusobacterium russii): 0.03 µg/mL
Minimal Inhibitory Concentration 90% (MIC90) (Fusobacterium russii): 0.06 µg/mL
Minimal Inhibitory Concentration 50% (MIC50) (Bacteroides gracilis): 0.125 µg/mL
Minimal Inhibitory Concentration 90% (MIC90) (Bacteroides gracilis): 4 µg/mL
Minimal Inhibitory Concentration 50% (MIC50) (Clostridium inocuum): 0.5 µg/mL
Minimal Inhibitory Concentration 90% (MIC90) (Clostridium inocuum): 0.5 µg/mL
Minimal Inhibitory Concentration 50% (MIC50) [2]: 0.06 µg/mL
Minimal Inhibitory Concentration 90% (MIC90) [2]: 0.125 µg/mL
Minimal Inhibitory Concentration Range [2]: 0.06 to 0.25 µg/mL
Minimal Inhibitory Concentration 50% (MIC50) [3]: 0.06 µg/mL
Minimal Inhibitory Concentration 90% (MIC90) [3]: 0.125 µg/mL
Minimal Inhibitory Concentration Range [3]: 0.06 to 0.125 µg/mL
Minimal Inhibitory Concentration 90% (MIC90) (Porphyromonas gingivalis): 0.03 µg/mL
Minimal Inhibitory Concentration 50% (MIC50) (Bilophila wadsworthia): 4 µg/mL
Minimal Inhibitory Concentration 90% (MIC90) (Bilophila wadsworthia): 8 µg/mL
Minimal Inhibitory Concentration Range (Bilophila wadsworthia): 2 to 16 µg/mL
Minimal Inhibitory Concentration 50% (MIC50) [4]: 0.5 µg/mL
Minimal Inhibitory Concentration Range [4]: 0.5 to 1 µg/mL
Minimal Inhibitory Concentration 50% (MIC50) [5]: 1 µg/mL
Minimal Inhibitory Concentration 90% (MIC90) [5]: 16 µg/mL
Minimal Inhibitory Concentration 50% (MIC50) (Clostridium dfficile): 2 µg/mL
Minimal Inhibitory Concentration 90% (MIC90) (Clostridium dfficile): 4 µg/mL
Minimal Inhibitory Concentration Range (Clostridium dfficile): 1 to 4 µg/mL
Minimal Inhibitory Concentration 50% (MIC50) (Fusobacterium varium): 0.5 µg/mL
Minimal Inhibitory Concentration 90% (MIC90) (Fusobacterium varium): 8 µg/mL
Minimal Inhibitory Concentration 50% (MIC50) (Prevotella intermedia): 0.03 µg/mL
Minimal Inhibitory Concentration 90% (MIC90) (Prevotella intermedia): 4 µg/mL
Minimal Inhibitory Concentration 50% (MIC50) [6]: 0.03 µg/mL
Minimal Inhibitory Concentration 90% (MIC90) [6]: 0.25 µg/mL
Minimal Inhibitory Concentration 90% (MIC90) [7]: 0.03 µg/mL
Minimal Inhibitory Concentration 50% (MIC50) [8]: 4 µg/mL
Minimal Inhibitory Concentration 50% (MIC50) [9]: 0.25 µg/mL
Minimal Inhibitory Concentration 90% (MIC90) [9]: 2 µg/mL
Minimal Inhibitory Concentration 50% (MIC50) (Porphyromonas macaccae): 0.5 µg/mL
Minimal Inhibitory Concentration 90% (MIC90) (Porphyromonas macaccae): 0.5 µg/mL
Minimal Inhibitory Concentration 50% (MIC50) (Actinomyces israelii): 0.03 µg/mL
Minimal Inhibitory Concentration 50% (MIC50) [10]: 0.25 µg/mL
Minimal Inhibitory Concentration 90% (MIC90) [10]: 0.5 µg/mL
Minimal Inhibitory Concentration 50% (MIC50) (Prevotella bivia): 16 µg/mL
Minimal Inhibitory Concentration 90% (MIC90) (Prevotella bivia): 32 µg/mL
Minimal Inhibitory Concentration Range (Prevotella bivia): 0.25 to 32 µg/mL
Minimal Inhibitory Concentration 50% (MIC50) (Bacteroides tectum): 0.03 µg/mL
Minimal Inhibitory Concentration 90% (MIC90) (Bacteroides tectum): 16 µg/mL
Minimal Inhibitory Concentration 50% (MIC50) [11]: 0.03 µg/mL
Minimal Inhibitory Concentration Range [11]: 0.03 to 0.06 µg/mL
Minimal Inhibitory Concentration 50% (MIC50) (Veillonella spp.): 1 µg/mL
Minimal Inhibitory Concentration 90% (MIC90) (Veillonella spp.): 4 µg/mL
Minimal Inhibitory Concentration 50% (MIC50) [12]: 0.03 µg/mL
Minimal Inhibitory Concentration 90% (MIC90) [12]: 0.25 µg/mL
Minimal Inhibitory Concentration 90% (MIC90) (Bacteroides ureolyticus): 0.25 µg/mL
Minimal Inhibitory Concentration 50% (MIC50) (Clostridium ramosum): 0.06 µg/mL
Minimal Inhibitory Concentration 90% (MIC90) (Clostridium ramosum): 1 µg/mL
Minimal Inhibitory Concentration Range (Clostridium ramosum): 0.06 to 1 µg/mL
Minimal Inhibitory Concentration 90% (MIC90) [13]: 2 µg/mL
Minimal Inhibitory Concentration 50% (MIC50) [14]: 0.125 µg/mL
Minimal Inhibitory Concentration 90% (MIC90) [14]: .0125 µg/mL
Minimal Inhibitory Concentration Range [14]: 0.125 to 0.25 µg/mL

Amoxicillin clavulanate
Minimal Inhibitory Concentration 50% (MIC50) [1]: 0.25 µg/mL
Minimal Inhibitory Concentration 90% (MIC90) [1]: 1 µg/mL
Minimal Inhibitory Concentration Range [1]: 0.125 to 2 µg/mL
Minimal Inhibitory Concentration 50% (MIC50) (Fusobacterium russii): 0.06 µg/mL
Minimal Inhibitory Concentration 50% (MIC50) (Bacteroides gracilis): 0.5 µg/mL
Minimal Inhibitory Concentration 90% (MIC90) (Bacteroides gracilis): 2 µg/mL
Minimal Inhibitory Concentration 50% (MIC50) (Clostridium inocuum): 0.5 µg/mL
Minimal Inhibitory Concentration 90% (MIC90) (Clostridium inocuum): 0.5 µg/mL
Minimal Inhibitory Concentration Range (Clostridium inocuum): 0.5 to 2 µg/mL
Minimal Inhibitory Concentration 90% (MIC90) [15]: 0.03 µg/mL
Minimal Inhibitory Concentration 90% (MIC90) [2]: 0.25 µg/mL
Minimal Inhibitory Concentration Range [2]: 0.06 to 0.25 µg/mL
Minimal Inhibitory Concentration 90% (MIC90) [3]: 0.25 µg/mL
Minimal Inhibitory Concentration Range [3]: 0.125 to 0.25 µg/mL
Minimal Inhibitory Concentration 90% (MIC90) (Porphyromonas gingivalis): 0.06 µg/mL
Minimal Inhibitory Concentration 50% (MIC50) (Bilophila wadsworthia): 2 µg/mL
Minimal Inhibitory Concentration 90% (MIC90) (Bilophila wadsworthia): 4 µg/mL
Minimal Inhibitory Concentration Range (Bilophila wadsworthia): 1 to 4 µg/mL
Minimal Inhibitory Concentration 90% (MIC90) (Porphyromonas canoris): 0.03 µg/mL
Minimal Inhibitory Concentration 50% (MIC50) [4]: 0.25 µg/mL
Minimal Inhibitory Concentration Range [4]: 0.25 to 0.5 µg/mL
Minimal Inhibitory Concentration 50% (MIC50) [5]: 0.5 µg/mL
Minimal Inhibitory Concentration 90% (MIC90) [5]: 1 µg/mL
Minimal Inhibitory Concentration Range [5]: 0.5 to 8 µg/mL
Minimal Inhibitory Concentration 50% (MIC50) (Clostridium dfficile): 1 µg/mL
Minimal Inhibitory Concentration 90% (MIC90) (Clostridium dfficile): 1 µg/mL
Minimal Inhibitory Concentration Range (Clostridium dfficile): 0.5 to 1 µg/mL
Minimal Inhibitory Concentration 50% (MIC50) (Fusobacterium varium): 2 µg/mL
Minimal Inhibitory Concentration 90% (MIC90) (Fusobacterium varium): 4 µg/mL
Minimal Inhibitory Concentration Range (Fusobacterium varium): 0.125 to 4 µg/mL
Minimal Inhibitory Concentration 50% (MIC50) (Prevotella intermedia): 0.03 µg/mL
Minimal Inhibitory Concentration Range (Prevotella intermedia): 0.03 to 0.5 µg/mL
Minimal Inhibitory Concentration 50% (MIC50) [6]: 0.03 µg/mL
Minimal Inhibitory Concentration Range [6]: 0.03 to 1 µg/mL
Minimal Inhibitory Concentration 50% (MIC50) [7]: 0.03 µg/mL
Minimal Inhibitory Concentration Range [7]: 0.03 to 0.125 µg/mL
Minimal Inhibitory Concentration 50% (MIC50) [8]: 0.06 µg/mL
Minimal Inhibitory Concentration Range [8]: 0.03 to 0.5 µg/mL
Minimal Inhibitory Concentration 50% (MIC50) [9]: 2 µg/mL
Minimal Inhibitory Concentration 90% (MIC90) [9]: 4 µg/mL
Minimal Inhibitory Concentration Range [9]: 0.03 to 16 µg/mL
Minimal Inhibitory Concentration 50% (MIC50) (Actinomyces israelii): 0.03 µg/mL
Minimal Inhibitory Concentration Range (Actinomyces israelii): 0.03 to 1 µg/mL
Minimal Inhibitory Concentration 50% (MIC50) [10]: 1 µg/mL
Minimal Inhibitory Concentration 90% (MIC90) [10]: 2 µg/mL
Minimal Inhibitory Concentration 50% (MIC50) (Prevotella bivia): 0.5 µg/mL
Minimal Inhibitory Concentration 90% (MIC90) (Prevotella bivia): 4 µg/mL
Minimal Inhibitory Concentration Range (Prevotella bivia): 0.06 to 4 µg/mL
Minimal Inhibitory Concentration 50% (MIC50) (Bacteroides tectum): 0.06 µg/mL
Minimal Inhibitory Concentration 90% (MIC90) (Bacteroides tectum): 0.5 µg/mL
Minimal Inhibitory Concentration Range (Bacteroides tectum): 0.03 to 0.5 µg/mL
Minimal Inhibitory Concentration 50% (MIC50) [11]: 0.03 µg/mL
Minimal Inhibitory Concentration 50% (MIC50) (Veillonella spp.): 0.5 µg/mL
Minimal Inhibitory Concentration 90% (MIC90) (Veillonella spp.): 2 µg/mL
Minimal Inhibitory Concentration 50% (MIC50) [12]: 0.03 µg/mL
Minimal Inhibitory Concentration Range [12]: 0.03 to 1 µg/mL
Minimal Inhibitory Concentration 50% (MIC50) (Clostridium ramosum): 0.06 µg/mL
Minimal Inhibitory Concentration 90% (MIC90) (Clostridium ramosum): 0.25 µg/mL
Minimal Inhibitory Concentration Range (Clostridium ramosum): 0.06 to 0.25 µg/mL
Minimal Inhibitory Concentration 50% (MIC50) [13]: 0.06 µg/mL
Minimal Inhibitory Concentration 90% (MIC90) [14]: 0.25 µg/mL
Minimal Inhibitory Concentration Range [14]: 0.06 to 0.125 µg/mL
